# Patent US20260234173A1, “STRUCTURED MOLECULAR VECTORS FOR ANTI-INFLAMMATORY COMPOUNDS AND USES THEREOF” (Universite Claude Bernard Lyon 1, priority 2019, published 2026)
# What was measured:
# [1] = system: fully amygdala-kindled rats; experiment: Seizure severity in fully amygdala-kindled rats (Racine's scale); format: in vivo, rat
# Protocol: All animal procedures were in compliance with the guidelines of the European Union (directive 2010-63), regulating animal experimentation, and have been approved by the ethical committee of the Claude Bernard Lyon 1 University. Male Sprague-Dawley rats (Envigo, France) were used in these experiments. They were housed in a temperature-controlled room (23±1° C.) under diurnal lighting conditions (lights on from 6 a.m to 6 p.m). Rats arrived 15 days prior to the beginning of the experiments. They were maintained in groups of 2 in 800 cm2 plastic cages comprising minimal environmental enrichment (nesting cardboard material, wooden gnowing sticks), and had free access to food and water.
# For surgical implantation of kindling electrodes, rats weighing 220-240 g were anesthetized using isoflurane (5% induction; 2% maintenance) and treated with the analgesic drug buprenorphine (0.050 mg/kg, i.m.). Their heads were positioned in a stereotaxic apparatus with the incisor bar set at −3.3 mm. Burr holes were drilled for the placement of three stainless steel jewelers' screws in the left parietal, right frontal and occipital bones, and over the site of implantation of the electrode used for amygdala kindling. This stimulation and recording electrode consisted of a teflon-isolated bipolar stainless-steel electrode aimed at the right basolateral amygdala (stereotaxic coordinates relative to Bregma: anterior-posterior, −2.8 mm; lateral, +4.8 mm; dorso-ventral, −8.5 mm). The screws placed above the parietal cortex and the frontal cortex served as recording electrodes, and the placed above the cerebellum served as grounding. Bipolar, recording and grounding electrodes were connected to a plug anchored to the skull with dental acrylic cement.
# Electrical stimulation via the kindling electrode was initiated after a recovery period of 1 week after surgery, and was performed at the same time of the day (between 9:00 and 11:00 A.M. and then between 4:00 and 6:00 P.M.) to avoid intraday variance between animals. Constant current stimulations (500 μA, biphasic square-wave pulses, 50 pulses/s for 2 s) were delivered twice daily until at least 5 fully kindled seizures (secondarily generalized stage 5 seizures) were elicited. Seizure severity was classified behaviorally according to Racine's scale: stage 1, immobility, slight facial clonus (eye closure, twitching of vibrissae, sniffing); stage 2, head nodding associated with more severe facial clonus; stage 3, clonus of one forelimb; stage 4, rearing, often accompanied by bilateral forelimb clonus; stage 5, tonic-clonic seizure accompanied by loss of balance and falling.
# To evaluate the effect of SYN-PN on seizure severity, SYN-PN was prepared in saline and injected intraperitoneally at 5, 10 or 50 mg/kg, 45 min prior to electrical stimulation in fully kindled rats. Briefly, the day after the last stage 5 seizure, on day 1, the rats received a first dose of SYN-PN (5 mg/kg) and were stimulated 45 minutes later. At D2 and D5, they were stimulated without SYN-PN injection to evaluate the residual effect of the 5 mg/kg dose. On D6, they received a second dose of SYN-PN (10 mg/kg) and were stimulated 45 minutes later. They were then simulated at D7 and D8 to evaluate the residual effect of the 10 mg/kg dose. On D9, rats received a third dose of SYN-PN (50 mg/kg) and were stimulated 45 minutes later. They were then simulated at D10 and D11 to evaluate the residual effect of the 50 mg/kg dose. Finally, they received 1) a daily dose of SYN-PN at 5 mg/kg from D12 to D15 and were stimulated at D16; 2) a daily dose of SYN-PN at 10 mg/kg from D19 to D22 and were stimulated at D23; and 3) a daily dose of SYN-PN at 20 mg/kg from D26 to D29 and were stimulated at D30. The treatments were then stopped. However, to assess the persistence of the effects of this series of treatments, rats continued to be stimulated at 7, 15, 42 and 56 days after the last treatment at 20 mg/kg.
# [2] = system: epileptic rats (post Pilo-SE); experiment: Morris water maze (MWM) spatial learning in epileptic rats; format: in vivo, rat; settings: epileptic rats injected during the first week post-SE, tested 5 weeks post-SE, versus saline
# Protocol: All injected solutions were prepared in sterile saline (0.9% w/v). At weaning (postnatal day 20 (P20)), Sprague-Dawley male rat pups were first injected i.p. with lithium chloride (127 mg/Kg; Sigma-Aldrich), to decrease the dose of pilocarpine needed to trigger Status Epilepticus (SE). Scopolamine methylnitrate (1 mg/Kg; Sigma-Aldrich) was injected s.c. 18 h later, to alleviate peripheral cholinergic adverse side effects. Pilocarpine hydrochloride (25 mg/Kg; Sigma-Aldrich) was injected i.p. 30 min later, to induce SE. After 30 min of continuous behavioral SE, diazepam (Valium®, Roche) was injected i.p. at 10 mg/Kg, to promote survival and initiate cessation of behavioral seizures, that completely stopped after a second s.c. injection of diazepam, given 90 min later at the dose of 5 mg/Kg. The rats were placed on a heated pad, under continuous observation, until they recovered from sedation. Following recovery, the rats were returned to the nursing mother until P23. Control rats only received saline injections. […]
# Spatial learning ability was measured at 5 weeks post-SE by the Morris water maze (MWM). […]
# The statistical analyses were performed using SigmaPlot software version 12. […] For MWM test, data were analyzed by two-way repeated measures ANOVA followed by Fisher LSD post hoc tests to compare differences between groups at several time points.
smiles,measurement,setting,value
CCC=CCC=CCC=CCC=CCC=CCC=CCCC(=O)NCCP(=O)(O)O [synaptamide phosphonate],rats with absence of seizures 15 days after stopping treatment,[1]; all rats (n=15),7/15
same,decrease of mean seizure severity,"[1]; all rats (n=15), D1, 5 mg/kg i.p. 45 min before stimulation",19.0±7.9%
same,seizure severity compared to D0,"[1]; all rats (n=15), D2, day after 5 mg/kg, no injection",−23.1±8.1%
same,effect of 5 mg/kg on seizure severity at D5,"[1]; all rats (n=15), D5, no injection",lost
same,seizure severity compared to D0,"[1]; all rats (n=15), D6, 10 mg/kg i.p. 45 minutes before stimulation",not significantly different from that at D0
same,seizure severity compared to D0,"[1]; all rats (n=15), D16, after daily 5 mg/kg from D12",−42.0±9.2%
same,seizure severity compared to D0,"[1]; all rats (n=15), the next day and the day after 10 mg/kg (D7-D8), at the most",−39.4±11.1%
same,delay of the maximum effect on seizure severity after administration,[1]; any dose,24 to 48 h
same,rats responding to 5 mg/kg,[1]; decrease in seizure severity first observed at 5 mg/kg i.p.,8/15
same,rats responding to 10 mg/kg,[1]; decrease in seizure severity first observed at 10 mg/kg i.p.,3/15
same,rats responding to 50 mg/kg,[1]; decrease in seizure severity first observed at 50 mg/kg i.p.,4/15
same,seizure severity compared to D0,"[1]; rats responding to 5 mg/kg (n=8), D16 after daily 5 mg/kg",−87.0±13.0%
same,seizure severity compared to D0,"[1]; rats responding to 5 mg/kg (n=8), same day of administration",−36.4±11.7%
same,"average severity of seizures on increasing the daily dose from 5 to 10, then to 20 mg/kg","[1]; rats responding to 5 mg/kg, 4 daily doses each",did not change the average severity of seizures
same,rats remaining at stage 0,"[1]; rats responding to 5 mg/kg, D16 after daily 5 mg/kg",7/8
same,rats free from seizures,"[1]; rats responding to 5 mg/kg, after 4 daily doses of 5 mg/kg",7/8
same,rats free from seizures,"[1]; rats responding to 5 mg/kg, after 4 daily doses of 10 mg/kg",4/8
same,decrease of seizure severity compared to D0,[1]; rats responding to 10 mg/kg (n=3),not significantly different from DO
same,severity reduction at D16,"[1]; rats responding to 10 mg/kg (n=3), after 5 mg/kg for 4 days",maintained
same,decrease of seizure severity compared to D0,[1]; rats responding to 50 mg/kg (n=4),too variable to observe a significant effect
same,seizure reduction at D16,"[1]; rats responding to 50 mg/kg (n=4), after 5 mg/kg for 4 days",only transient and lost at D16
same,duration of the protective effect against seizures after stopping treatment,"[1]; rats responding to 50 mg/kg, after high doses (20 mg/kg)",up to 15 days
same,persistence of seizure freedom after stopping treatment,[1]; substantial population of rats,"free of seizures, even after almost two months of stopping treatment"
same,spatial learning in MWM (latency to find the platform),[2],increased average latency to find the platform
